Here are results for two molecules from paper PMC4532424, “The Novel Cyclophilin Inhibitor CPI-431-32 Concurrently Blocks HCV and HIV-1 Infections via a Similar Mechanism of Action” (PLoS ONE, 2015).

Read-outs that look alike come from different tables or passages of the source. Non-standard residues stand in square brackets, D forms with d. Residues, ends and D or L forms follow the SMILES beside them. NMeThr(4R-Me,4-(CH2)6NHAc) = CN[C@H](C(=O)O)[C@H](O)[C@H](C)CCCCCCNC(C)=O; NMeL = CN[C@@H](CC(C)C)C(=O)O; NMeV = CN[C@H](C(=O)O)C(C)C; dNMeA = CN[C@H](C)C(=O)O; Abu = CC[C@H](N)C(=O)O

One experiment deals with HIV-1 JR-CSF. Nature of the experiment: HIV-1 mono-infection of CD4+ T-lymphocytes, p24 ELISA. The following applies: Fig 1A. Format: cell-based. From the text:
Hemoglobin determinations at every donation protect the donor from phlebotomy-induced anemia. The donor pool also provides investigators with a mix of gender and minority subjects, and recruitment is ongoing for underrepresented minorities. At the present time, the NBDS has 320 active normal blood donors enrolled. Use of the Normal Blood Donor Service is considered “human subjects” research and each investigator who wants to use the service must submit a protocol to the IRB for review and approval. Dr. Gallay has current IRB approval for the human blood obtained for research described in this manuscript. Protocol No: IRB-15-6552. Full name of the IRB is "Scripps IRB". […] Consent from blood donors was obtained verbally. The authors have no access to identifying donor information for these samples.

For another experiment, the system named is HCV JFH-1. Nature of the experiment: HIV-1/HCV co-culture co-infection, HCV core ELISA. It counts as cell-based. Here is the method:
CD4+ T-lymphocytes and Huh7.5.1 cells uninfected or infected for 3 h as described above were mixed in a single flask and HIV-1 and HCV replication monitored over a period of 3 weeks as described above.
HIV-1 target cells—CD4+ T-lymphocytes—and HCV target cells—hepatoma cells—were placed in a single chamber (flask), exposed to both HIV-1 and HCV, and viral replication monitored over time by p24 capsid and core ELISAs, respectively.
CD4+ T-lymphocytes (A) and Huh7.5.1 cells (B) (0.5 x 10^6 cells) (triplicates) were exposed to HIV-1 JR-CSF and HCV JFH-1. Drugs (2 μM) were added 3 h pre-viral exposure (top panels) or 3 days post-viral exposure (bottom panels). Viral replications were monitored by HIV-1 p24 and HCV core ELISAs. C. CD4+ T-lymphocytes (0.5 x 10^6 cells) (triplicates) were exposed to HIV-1 JR-CSF. Drugs were initially added 3 days post-viral exposure (2 μM) and then daily (0.5 μM). Viral replications were monitored by HIV-1 p24 and HCV core ELISAs. […] D. Model for the HIV-1/HCV co-culture system.
A general note: ELISA stands for enzyme-linked immunosorbent assay.

Experiment [1] addresses CypA-HIV-1 capsid complex (Homo sapiens, UniProt P62937). Briefly: CypA-HIV-1 capsid interaction ELISA. Format: binding. The following applies: 16 h at 4°C. How it is done:
Recombinant GST-CypA, full-length HCV NS5A Con1 (pET-Ub-NS5A Con1-His) and HIV-1 capsid NL4.3 (pET-capsid-His) were expressed and purified as described previously. Inhibition of CypA-HCV NS5A and CypA-HIV-1 capsid interactions by the CypI […] were conducted as we described previously.
CypI are thought to inhibit the infection of HIV-1 and HCV mostly by preventing CypA-HIV-1 capsid and CypA-HCV NS5A interactions, respectively. The potency of CypI at inhibiting these interactions was determined using an ELISA assay previously developed in our laboratory. For analyzing CypA-HCV NS5A interactions, recombinant NS5A-His was added to GST-CypA-coated wells for 16 h at 4°C in the absence or presence of CypI, followed by detection of captured NS5A-His with anti-His antibodies. A similar assay was used for CypA-HIV-1 interactions except with recombinant His-tagged HIV-1 capsid.

In experiment [2] the test system is HCV NS3-resistant (R155Q/A156T). Briefly: HCV Luc-Con1 replicon replication in Huh7.5 cells, luciferase. Format: cell-based. The following applies: read-out: EC50, inhibition of HCV replication. How it is done:
(§1) The GT1b subgenomic firefly luciferase reporter replicon pFK-I389/NS3–3 was provided by R. Bartenschlager. The GT1B subgenomic NS3 (R155Q/A156T), NS5A (L31V, D320E/Y321N, S328P and P313A/P318A), and NS5B (S282T) mutants were created as previously. Half-maximal effective concentration (EC50) measurements were conducted as previously.
(§2) We took advantage of the DAA-resistant HCV genotype 1b Con1 replicons that we previously generated: the NS3 inhibitor-resistant R155Q/A156T NS3, the NS5A inhibitor-resistant L31V NS5A replicon, and the NS5B inhibitor-resistant S282T NS5B replicons. […] EC50 HCV data are expressed in nM whereas EC50 HIV-1 data are expressed in μM.
(In general: A replicon is a self-replicating genome or part of one, used to study replication in cells.)

In experiment [3] the test system is HCV NS5B-resistant (S282T). Described as above. It counts as cell-based. Particulars: read-out: EC50, inhibition of HCV replication. How it is done: as §1, §2
Experiment [4] concerns HCV CsA-sensitive (S328P). Described as above. Format: cell-based. Particulars: read-out: EC50, inhibition of HCV replication. Here is the method: as §1, §2
The subject of the next experiment is HCV wild-type (Con1b). Described as above. Format: cell-based. The following applies: 72 h, read-out: EC50, inhibition of HCV replication. Here is the method: as §1, §2
In experiment [5] the test system is HCV CsA-sensitive (P313A/P318A). The description is as above. Format: cell-based. The following applies: read-out: EC50, inhibition of HCV replication. How it is done:
as §1, §2

The test system of experiment [6] is HCV NS5A-resistant (L31V). The experiment is described as above. It counts as cell-based. Particulars: read-out: EC50, inhibition of HCV replication. How it is done:
as §1, §2

For experiment [7], the system named is HCV ALV-resistant (D320E/Y321N). Described as above. Format: cell-based. Particulars: read-out: EC50, inhibition of HCV replication. How it is done: as §1, §2
The subject of experiment [8] is HIV-1 ALV-resistant (NL4.3 V86P/H87Q/I91V/M96I). Briefly: HIV-1 infection of TZM reporter cells, β-galactosidase. Particulars: read-out: EC50, inhibition of HIV-1 infection. It counts as cell-based. From the text:
(§3) the reverse transcriptase inhibitor-resistant HIV-1 variant (nevirapine-resistant N119), the protease inhibitor-resistant HIV-1 variant (saquinavir-resistant), and the naturally occurring primary ALV-resistant variant CMU08 (contributed by Kenrad Nelson) were obtained from the AIDS Research and Reference Reagent Program. Lab-adapted wild-type NL4.3 and the ALV-resistant V86P/H87Q/I91V/M96I NL4.3 capsid mutant variant were described previously. For infection scoring, TZM-bl target cells (contributed by J. C. Kappes, X. Wu, and Tranzyme, Inc.) obtained through the AIDS Research and Reference Reagent Program were exposed to wild-type or drug-resistant HIV-1 variants (1 ng of p24) together with increasing concentrations of DMSO or CypI. HIV-1 infection was quantified 48 h post-infection by measuring β-galactosidase activity in cell lysates.
(§4) We then tested the efficacy of CPI-431-32 and ALV against a panel of drug-resistant HIV-1 and HCV variants. Specifically, we measured CPI-431-32 EC50 on a reverse transcriptase inhibitor-resistant HIV-1 variant (nevirapine-resistant), a protease inhibitor-resistant HIV-1 variant (saquinavir-resistant), and two partially ALV-resistant HIV-1 variants—a lab-adapted resistant variant (V86P/H87Q/I91V/M96I capsid mutant) and a naturally occurring primary partially resistant variant (CMU08). […] HIV-1 infection was quantified 48 h post-infection by measuring β-galactosidase activity in cell lysates.

The subject of the next experiment is HIV-1 wild-type (NL4.3). The description is as above. It counts as cell-based. Particulars: read-out: EC50, inhibition of HIV-1 infection.
Source text: as §3, §4

[9] abbreviates: drug treatments begun 3 h before virus addition.
The mark [10] stands for this setting: single dose added 3 days post-infection.
Where [11] appears, read: Hepatitis C virus, Huh7.5, 72 h.

Chain of CypA-HIV-1 capsid complex (P62937 whole entry, one chain of several): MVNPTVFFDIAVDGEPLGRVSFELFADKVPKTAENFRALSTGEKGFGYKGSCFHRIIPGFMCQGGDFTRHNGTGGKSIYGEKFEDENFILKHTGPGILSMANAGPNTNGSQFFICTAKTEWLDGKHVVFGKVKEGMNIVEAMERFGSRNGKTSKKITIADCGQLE

A word on the IC50: it is the concentration that gives 50% inhibition. By EC50 is commonly meant the midpoint of the concentration-response curve. On to `C/C=C/C[C@@H](C)[C@@H](O)[C@H]1C(=O)N[C@@H](CC)C(=O)N(C)[C@H](C)C(=O)N(CC)[C@@H](C(C)C)C(=O)N[C@@H](C(C)C)C(=O)N(C)[C@@H](CC(C)C)C(=O)N[C@@H](C)C(=O)N[C@H](C)C(=O)N(C)[C@@H](CC(C)C)C(=O)N(C)[C@@H](CC(C)C)C(=O)N(C)[C@@H](C(C)C)C(=O)N1C` [ALV, Alisporivir], for which the “Effect on HIV-1 replication (in words)” value in the experiment on HIV-1 JR-CSF is given as “efficiently blocked viral growth”. Further, the “Effect on HCV replication (in words)” value with HCV JFH-1 (setting [9]) was “completely prevented”; in the experiment on HCV JFH-1 (setting [10]), “immediately and gradually caused a decline in HCV levels”. Besides, the IC50 in experiment [1] (IC50, inhibition of CypA-HIV-1 capsid interactions) came to 0.41 ± 0.05 µM; in experiment [1] (IC50, inhibition of capsid binding to CypA, Table 2, capsid-His on GST-CypA-coated plates) it was 0.42 ± 0.11 µM. Further, the EC50 in experiment [2] (setting [11]) was determined as 0.0177 ± 0.0019 µM; in [3] (setting [11]) it was 0.0156 ± 0.0024 µM; in experiment [4] (setting [11]), 0.0056 ± 0.0011 µM; with HCV wild-type (Con1b) (Hepatitis C virus), 0.0166 ± 0.0008 µM; in experiment [5] (setting [11]), 0.0052 ± 0.0006 µM; in [6] (setting [11]), 0.0165 ± 0.0021 µM. In addition, the EC50 in [7] (setting [11]) was determined as 0.0442 ± 0.0058 µM; in [8] (Human immunodeficiency virus 1, TZM, 48 h), 2.3 ± 0.3 µM; in the experiment on HIV-1 wild-type (NL4.3) (Human immunodeficiency virus 1, 48 h post-infection), 0.12 ± 0.03 µM.

As for `CC[C@@H]1NC(=O)[C@H]([C@H](O)[C@H](C)CCCCCCNC(C)=O)N(C)C(=O)[C@H](C(C)C)N(C)C(=O)[C@H](CC(C)C)N(C)C(=O)[C@H](CC(C)C)N(C)C(=O)[C@@H](C)NC(=O)[C@H](C)NC(=O)[C@H](CC(C)C)N(C)C(=O)[C@H](C(C)C)NC(=O)[C@H](CC(C)C)N(C)C(=O)[C@@H](C)N(C)C1=O` [CPI-431-32] (cyclo(A[dA][NMeL][NMeL][NMeV][NMeThr(4R-Me,4-(CH2)6NHAc)][Abu][dNMeA][NMeL]V[NMeL])), the “Effect on HIV-1 replication (in words)” value in the experiment with HIV-1 JR-CSF is on record as “efficiently blocked viral growth”. The “Effect on HCV replication (in words)” value with HCV JFH-1 (setting [9]) is “completely prevented”; in the experiment with HCV JFH-1 (setting [10]), “immediately and gradually caused a decline in HCV levels”. Further, the IC50 in experiment [1] (read-out: IC50, inhibition of CypA-HIV-1 capsid interactions) amounted to 0.21 ± 0.01 µM; in experiment [1] (Table 2, capsid-His on GST-CypA-coated plates, read-out: IC50, inhibition of capsid binding to CypA), 0.23 ± 0.01 µM. Further, the EC50 in [2] (HCV NS3-resistant (R155Q/A156T) replicon, Huh7.5 cells, 72 h) is 0.0113 ± 0.0002 µM; in experiment [3] (HCV NS5B-resistant (S282T) replicon, Huh7.5 cells, 72 h) it was 0.0083 ± 0.0004 µM; in experiment [4] (HCV CsA-sensitive (S328P) replicon, Huh7.5 cells, 72 h), 0.0051 ± 0.0003 µM; with HCV wild-type (Con1b), 0.0093 ± 0.0004 µM; in [5] (HCV CsA-sensitive (P313A/P318A) replicon, Huh7.5 cells, 72 h) it was 0.0047 ± 0.0002 µM; in experiment [6] (HCV NS5A-resistant (L31V) replicon, Huh7.5 cells, 72 h), 0.0089 ± 0.0004 µM. The EC50 is 0.0265 ± 0.0032 µM in experiment [7] (HCV ALV-resistant (D320E/Y321N) replicon, Huh7.5 cells, 72 h); 0.9 ± 0.1 µM in experiment [8] (HIV-1 ALV-resistant (NL4.3 V86P/H87Q/I91V/M96I), TZM cells, 48 h post-infection); 0.05 ± 0.01 µM in the experiment with HIV-1 wild-type (NL4.3) (48 h post-infection).
